≈ marks a conversion by molar mass, not a printed value.
What was measured:
[1] = test system: Methicillin Resistant Staphylococcus aureus strain USA 300, NRS384; assay: Minimum inhibitory concentration, broth micro-dilution (CLSI), S. aureus; assay type: cell-based; conditions: Staphylococcus aureus, MRSA / NRS 384 / USA300, 22 h, MRSA USA 300 NRS384; 35° C., 22 hours; read-out: MIC (μg/mL) S. aureus
Summary of the method: (§1)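 CLSI broth microdilution in cation-adjusted Mueller Hinton Broth with 0.002% Tween-80; inoculum final OD600 0.0005, 22 hours at 35° C. Ten 2-fold dilutions starting at 4 μg/mL (protocol 2) or 0.5 μg/mL (protocol 3).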

[2] = test system: Escherichia coli ATCC 25922; assay: Minimum inhibitory concentration, broth micro-dilution (CLSI), E. coli; assay type: cell-based; conditions: Escherichia coli, ATCC25922, 22 h, E. coli ATCC 25922; 35° C., 22 hours; read-out: MIC (μg/mL) E. coli
[3] = test system: Escherichia coli MC4100 harboring the IMP4213 (E. coli IMP); assay: microbe, parasite or virus in culture; assay type: cell-based; conditions: Escherichia coli, 22 h, read-out: MIC (μg/mL) E. coli IMP, E. coli MC4100 IMP4213, increased outer-membrane permeability; 35° C., 22 hours
Summary of the method: as §1

[4] = biological target: T1, SpsB (Staphylococcus aureus signal peptidase) (Staphylococcus aureus, UniProt P0A070); assay: cell-based; assay type: biochemical; conditions: SpsB IC50, whole-cell S. aureus (USA300 background, overexpressing SpsB) as SpsB source; fluorogenic peptide substrate, kinetic read 30 min
T1 construct: This assay uses a suspension of Staphylococcus aureus cells as a source of SpsB instead of recombinant SpsB protein; endogenous in cells; host or cells: S. aureus, USA300 background, overexpressing SpsB (whole-cell suspension from frozen pellets)
T1 sequence (P0A070 whole entry): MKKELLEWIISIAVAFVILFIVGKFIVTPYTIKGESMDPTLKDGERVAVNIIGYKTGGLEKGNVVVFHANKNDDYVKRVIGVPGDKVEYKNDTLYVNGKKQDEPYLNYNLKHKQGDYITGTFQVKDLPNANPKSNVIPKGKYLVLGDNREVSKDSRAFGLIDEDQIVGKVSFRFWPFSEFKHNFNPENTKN
Summary of the method: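 Whole S. aureus cells (USA300, overexpressing SpsB) in PBS with MgCl2, CaCl2 and 0.1% Tween-80 served as enzyme source, mixed with 20 μM stock of (Dabcyl)βAla-KPAKAAE(Edans) substrate before use. Fluorescence (ex 340/em 490 nm) read kinetically over 30 min. IC50 from reaction rate versus 11-point inhibitor concentration.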

| SMILES | MIC [1] [µg/mL] | MIC [2] [µg/mL] | MIC [3] [µg/mL] | IC50 [4] [nM] |
| --- | --- | --- | --- | --- |
| CCCCCc1ccc(C(=O)N[C@@H](CCN)C(=O)N(C)[C@@H]2C(=O)N[C@@H](C)C(=O)N[C@H](C(=O)NCC#N)Cc3ccc(OCCN)c(c3)-c3cc2ccc3OCCN)c(C)c1 [Compound 196] | 0.094 (≈ 0.114 µM) | 0.67 (≈ 0.811 µM) | 0.013 (≈ 0.0157 µM) | 1.1 |
| CCCCCCc1ccc(C(=O)N[C@@H](CCN)C(=O)N(C)[C@@H]2C(=O)N[C@@H](C)C(=O)N[C@H](C(=O)NCC#N)Cc3ccc(OCCN)c(c3)-c3cc2ccc3OCCN)c(C)c1 [Compound 197] | 0.078 (≈ 0.0929 µM) | 0.31 (≈ 0.369 µM) | 0.011 (≈ 0.0131 µM) | < 0.5 |
| CCCCCCCc1ccc(C(=O)N[C@@H](CCN)C(=O)N(C)[C@@H]2C(=O)N[C@@H](C)C(=O)N[C@H](C(=O)NCC#N)Cc3ccc(OCCN)c(c3)-c3cc2ccc3OCCN)c(C)c1 [Compound 198] | 0.063 (≈ 0.0738 µM) | 0.24 (≈ 0.281 µM) | 0.018 (≈ 0.0211 µM) | 0.72 |
| CCCCCCc1ccc(C(=O)N[C@@H](CCCCN)C(=O)N(C)[C@@H]2C(=O)N[C@@H](C)C(=O)N[C@H](C(=O)NCC#N)Cc3ccc(OCCN)c(c3)-c3cc2ccc3OCCN)c(C)c1 [Compound 199] | 0.031 (≈ 0.0357 µM) | 3 (≈ 3.46 µM) | 0.031 (≈ 0.0357 µM) | 0.73 |
| CCCCCCc1ccc(C(=O)N[C@@H](CCN)C(=O)N(C)[C@@H]2C(=O)N[C@@H](C)C(=O)N[C@H](C(=O)NCC#N)Cc3ccc(OCCN)c(c3)-c3cc2ccc3OCCN)cn1 [Compound 201] | 0.19 (≈ 0.23 µM) | 2 (≈ 2.42 µM) | 0.031 (≈ 0.0375 µM) | 1.4 |
| CCCCCCCc1ccc(C(=O)N[C@@H](CN)C(=O)N(C)[C@@H]2C(=O)N[C@@H](C)C(=O)N[C@H](C(=O)NCC#N)Cc3ccc(OCCN)c(c3)-c3cc2ccc3OCCN)c(C)c1 [Compound 202] | 0.031 (≈ 0.0369 µM) | 0.25 (≈ 0.298 µM) | 0.016 (≈ 0.019 µM) | 0.66 |
| CCCCCCCc1cc(C)c(C(=O)N[C@@H](CCN)C(=O)N(C)[C@@H]2C(=O)N[C@@H](C)C(=O)N[C@H](C(=O)NCC#N)Cc3ccc(OCCN)c(c3)-c3cc2ccc3OCCN)cc1F [Compound 203] | 0.031 (≈ 0.0355 µM) | 0.13 (≈ 0.149 µM) | 0.012 (≈ 0.0138 µM) | 0.72 |
| Cc1cc(CCC2CCCCC2)ccc1C(=O)N[C@@H](CCN)C(=O)N(C)[C@@H]1C(=O)N[C@@H](C)C(=O)N[C@H](C(=O)NCC#N)Cc2ccc(OCCN)c(c2)-c2cc1ccc2OCCN [Compound 204] | 0.031 (≈ 0.0358 µM) | 0.19 (≈ 0.219 µM) | 0.0078 (≈ 0.00901 µM) | 1.2 |
| CCCCCCCc1cc(C)c(C(=O)N[C@@H](CCN)C(=O)N(C)[C@@H]2C(=O)N[C@@H](C)C(=O)N[C@H](C(=O)NCC#N)Cc3ccc(OCCN)c(c3)-c3cc2ccc3OCCN)c(Cl)c1 [Compound 205] | 0.063 (≈ 0.0709 µM) | 0.25 (≈ 0.281 µM) | 0.016 (≈ 0.018 µM) | 0.85 |
| CCCCc1ccc(C(=O)N[C@@H](CCN)C(=O)N(C)[C@@H]2C(=O)N[C@@H](C)C(=O)N[C@H](C(=O)NCC#N)Cc3ccc(OCCN)c(c3)-c3cc2ccc3OCCN)c(C)c1 [Compound 208] | 0.25 (≈ 0.308 µM) | 1.3 (≈ 1.6 µM) | 0.029 (≈ 0.0357 µM) | 0.99 |
| CCCCCCCCc1ccc(C(=O)N[C@@H](CCN)C(=O)N(C)[C@@H]2C(=O)N[C@@H](C)C(=O)N[C@H](C(=O)NCC#N)Cc3ccc(OCCN)c(c3)-c3cc2ccc3OCCN)c(OC)c1 [Compound 209] | 0.19 (≈ 0.215 µM) | 2 (≈ 2.26 µM) | 0.094 (≈ 0.106 µM) | 0.92 |
| CCCCCCCCc1ccc(C(=O)N[C@@H](CCN)C(=O)N(C)[C@@H]2C(=O)N[C@@H](C)C(=O)N[C@H](C(=O)NCC#N)Cc3ccc(OCCN)c(c3)-c3cc2ccc3OCCN)c(Cl)c1 [Compound 210] | 0.094 (≈ 0.106 µM) | 0.11 (≈ 0.124 µM) | 0.029 (≈ 0.0326 µM) | 0.8 |
| CCCCCCCCc1ccc(C(=O)N[C@@H](CCN)C(=O)N(C)[C@@H]2C(=O)N[C@@H](C)C(=O)N[C@H](C(=O)NCC#N)Cc3ccc(OCCN)c(c3)-c3cc2ccc3OCCN)c(S(C)(=O)=O)c1 [Compound 212] | 0.031 (≈ 0.0333 µM) | 2 (≈ 2.15 µM) | 0.047 (≈ 0.0504 µM) | 0.62 |
| CCCCCCCCc1nc(C)c(C(=O)N[C@@H](CCN)C(=O)N(C)[C@@H]2C(=O)N[C@@H](C)C(=O)N[C@H](C(=O)NCC#N)Cc3ccc(OCCN)c(c3)-c3cc2ccc3OCCN)s1 [Compound 213] | 0.047 (≈ 0.0537 µM) | 2 (≈ 2.29 µM) | 0.023 (≈ 0.0263 µM) | 0.64 |
| Cc1cc(C2CCC2)ccc1C(=O)N[C@@H](CCN)C(=O)N(C)[C@@H]1C(=O)N[C@@H](C)C(=O)N[C@H](C(=O)NCC#N)Cc2ccc(OCCN)c(c2)-c2cc1ccc2OCCN [Compound 214] | 0.25 (≈ 0.309 µM) | 3 (≈ 3.7 µM) | 0.031 (≈ 0.0383 µM) | 0.98 |

Reference: US20180327367A1, “MACROCYCLIC BROAD SPECTRUM ANTIBIOTICS” (priority 2015, published 2018)
